Literature values as cited in PMC6929995, “Rod-shape theranostic nanoparticles facilitate antiretroviral drug biodistribution and activity in human immunodeficiency virus susceptible cells and tissues” (Theranostics, 2020).

Tested on: HIV-1

SMILES: Cc1cc(/C=C/C#N)cc(C)c1Nc1ccnc(Nc2ccc(C#N)cc2)n1 [RPV, rilpivirine]
- potency: sub-nanomolar range
